# Test results published in patent publication US11965039B2, “Compstatin analogues and their medical uses” (priority 2018, dated 2024).
# pIC50: −log10 of the molar value. Starred links: 1 amine or outer side, 2 acyl side, 3 side chain; linkers in the order of their positions; H or OH if unused. Positions of bridges follow the written chain, without caps; N, C: chain ends. Non-standard residues stand in square brackets, D forms with d. Residues, ends and D or L forms follow the SMILES beside them. Groups on a side chain read outwards from the residue. *: point of attachment. Trp(1-Me) = Cn1cc(C[C@H](N)C(=O)O)c2ccccc21; C18 diacid = O=C(O)CCCCCCCCCCCCCCCCC(=O)*; γGlu = O=C(O)[C@H](CCC(=O)[*:2])N[*:1]; AEEA = NCCOCCOCC(=O)O; Sar = CNCC(=O)O
# Key:
# [1] = tested on: alternative complement pathway; experiment: Ex vivo alternative pathway complement activity (WIESLAB kit) after s.c. dosing in non-human primates; design: species or system Cynomolgus monkeys (Macaca fascicularis); details: NHP, subcutaneous 1840 nmol/kg, FIG. 1a-f
# Experimental: FIG. 1(a-f): Normalized “ex vivo” activity of the alternative complement pathway over time after administration of a test compound at time 0 to one or two non-human primates. Compounds were given subcutaneously at a dose of 1840 nmol/kg. Complement activity (alternative pathway) was measured using the Wieslab kit. Activity was normalized using the predose (0) sample (set to 100%) and the negative control included in the kit. Normalized activity or average normalized activity for both animals and standard deviation is shown.
# (§1) Healthy male Cynomolgus monkeys (Macaca fascicularis) received single subcutaneous administrations of each test substance. Compounds were formulated in 20 mM phosphate adjusted with NaOH to pH 7.5 and mannitol for isotonicity and dosed at 1840 nmol/kg. Blood was collected from a femoral vein from each animal at the following times: Pre-dose, 1, 2, 4, 8, 24, 48, 72, 96 and 120 h (10 sampling times). Blood was collected into serum separation tubes and allowed to clot at room temperature. The tubes were centrifuged and resulting serum was aliquoted and snap-frozen over dry-ice and stored at nominally −80° C. until analysis. All NHP studies were performed in accordance with animal welfare laws and regulations, including approval of the study by a local ethical review process.
# Serum isolated from non-human primates at specific time points after dosing were analyzed for alternative pathway complement activity using the Complement system Alternative Pathway WIESLAB® kit from Svar Life Science (previously Euro diagnostic AB, Sweden) following the manufacturer's protocol. Briefly, serum samples or controls were diluted in buffer and incubated in microtitre strips coated with specific activators of the alternative pathway. The wells were washed and formed C5b-9 was detected using included colorimetric reagents. Absorbance at 405 nm was measured. The percent activity of the alternative complement pathway was calculated for each animal and timepoint relative to the pre-dose activity (0 hours) of the individual animal with subtraction of the negative control. […]
# [2] = tested on: classical complement pathway; experiment: In vitro haemolysis assay (inhibition of classical complement pathway); assay type: cell-based, human; details: human serum, sensitized sheep red blood cells; Table 3, given as upper bounds; read-out: IC50, inhibition of hemolysis
# How it was run: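 Compound dilutions preincubated 15 min at room temperature with diluted human serum (titrated per batch for 70-90% maximal haemolysis), then antibody-sensitized sheep RBC (10^7/well) added for 30 min at 37 °C in Tris/casein buffer, pH 7.4. Stopped with EDTA; haemolysis read at 405 nm; IC50 by 4PL fit.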
# [3] = Solubility test at 10 mg/mL (visual inspection and light scattering); assay type: physicochemical; details: for Solubility, Condition 1: Acetate pH 4; for Solubility, Condition 2: Acetate pH 5; for Solubility, Condition 3: Phosphate pH 6; for Solubility, Condition 4: Phosphate pH 7; for Solubility, Condition 5: Phosphate pH 7.5
# [4] = Pharmacokinetic half-life in non-human primates (serum, LC-MS/MS); assay type: in vivo, Cynomolgus monkeys (Macaca fascicularis); details: male, cynomolgus monkey, sc, NHP, single subcutaneous dose 1840 nmol/kg, * = approximate determination
# Experimental: as §1
# In order to assess pharmacokinetic half-life (t ½), serum samples isolated from non-human primates at specific time points after dosing were analysed for total drug compound after sample preparation by solid phase extraction (SPE) and liquid chromatography mass spectrometry (LC-MS/MS) using analogue internal standard. Single measurement of serum concentrations were used for calculation of the pharmacokinetic parameters using the non-compartmental approach in Phoenix WinNonlin 6.3. Plasma terminal elimination half-life (t½) was determined as In(2)/λz where λz is the magnitude of the slope of the log linear regression of the log concentration versus time profile during the terminal phase.
half-life [4] [h],SMILES,duration of action (alternative pathway complement activity) [1],pIC50 [2],"Solubility, Condition 1 [3]","Solubility, Condition 2 [3]","Solubility, Condition 3 [3]","Solubility, Condition 4 [3]","Solubility, Condition 5 [3]"
–,CC[C@H](C)[C@@H]1NC(=O)[C@@H](NC(=O)[C@H](Cc2ccc(O)cc2)NC(=O)[C@H](C)NC(=O)[C@H](CO)NC(=O)CNC(=O)[C@H](CCC(=O)O)NC(C)=O)CSSC[C@@H](C(=O)N(C)CC(=O)N[C@@H](CCC(=O)O)C(N)=O)NC(=O)[C@H](CCCNC(=N)N)NC(=O)[C@H](Cc2c[nH]cn2)NC(=O)[C@H](CCC(=O)O)NC(=O)CNC(=O)[C@H](Cc2c[nH]c3ccccc23)NC(=O)[C@H](CC(=O)O)NC(=O)[C@H](CCC(N)=O)NC(=O)[C@H](Cc2cn(C)c3ccccc23)NC1=O [Compound 54] (Ac-EGSAYCI[Trp(1-Me)]QDWGEHRC[Sar]E-NH2; disulfide 6-16),relatively short duration of action,> 7.00,"− (“−” denotes lack of solubility at the given condition, as UV absorbance at 340 nm exceeds 0.1 AU and/or it is visibly turbid or contains particles)","− (“−” denotes lack of solubility at the given condition, as UV absorbance at 340 nm exceeds 0.1 AU and/or it is visibly turbid or contains particles)","+ (“+” denotes solubility at the given condition, as determined by UV absorbance being less than 0.1 AU at 340 nm and the sample being clear when manually inspected)","+ (“+” denotes solubility at the given condition, as determined by UV absorbance being less than 0.1 AU at 340 nm and the sample being clear when manually inspected)","+ (“+” denotes solubility at the given condition, as determined by UV absorbance being less than 0.1 AU at 340 nm and the sample being clear when manually inspected)"
~78.7,CC[C@H](C)[C@@H]1NC(=O)[C@@H](NC(=O)[C@H](Cc2ccc(O)cc2)NC(=O)[C@H](CCC(=O)O)NC(=O)[C@H](CO)NC(C)=O)CSSC[C@@H](C(=O)N(C)CC(=O)N[C@@H](CCC(=O)O)C(=O)NCC(=O)N[C@@H](C)C(=O)N[C@@H](CCCCNC(=O)COCCOCCNC(=O)CC[C@H](NC(=O)COCCOCCNC(=O)CNC(=O)CC[C@H](NC(=O)CCCCCCCCCCCCCCCCC(=O)O)C(=O)O)C(=O)O)C(N)=O)NC(=O)[C@H](CCCNC(=N)N)NC(=O)[C@H](Cc2c[nH]cn2)NC(=O)[C@H](CCC(=O)O)NC(=O)CNC(=O)[C@H](Cc2c[nH]c3ccccc23)NC(=O)[C@H](CC(=O)O)NC(=O)[C@H](CCC(N)=O)NC(=O)[C@H](Cc2cn(C)c3ccccc23)NC1=O [Compound 118] (Ac-SEYCI[Trp(1-Me)]QDWGEHRC[Sar]EGAK([AEEA-γGlu-AEEA-Gly-γGlu-C18 diacid])-NH2; disulfide 4-14),–,> 7.00,"− (“−” denotes lack of solubility at the given condition, as UV absorbance at 340 nm exceeds 0.1 AU and/or it is visibly turbid or contains particles)","+ (“+” denotes solubility at the given condition, as determined by UV absorbance being less than 0.1 AU at 340 nm and the sample being clear when manually inspected)","+ (“+” denotes solubility at the given condition, as determined by UV absorbance being less than 0.1 AU at 340 nm and the sample being clear when manually inspected)","+ (“+” denotes solubility at the given condition, as determined by UV absorbance being less than 0.1 AU at 340 nm and the sample being clear when manually inspected)","+ (“+” denotes solubility at the given condition, as determined by UV absorbance being less than 0.1 AU at 340 nm and the sample being clear when manually inspected)"
–,"CC[C@H](C)[C@H](NC(=O)[C@H](N)Cc1ccc(O)cc1)C(=O)N[C@H]1CSSC[C@@H](C(=O)N(C)[C@H](C(N)=O)[C@@H](C)CC)NC(=O)[C@H](CCCNC(=N)N)NC(=O)[C@H](Cc2c[nH]cn2)NC(=O)[C@H](C)NC(=O)CN(C)C(=O)[C@H](Cc2c[nH]c3ccccc23)NC(=O)[C@H](CC(=O)O)NC(=O)[C@H](CCC(N)=O)NC(=O)[C@H](Cc2cn(C)c3ccccc23)NC(=O)[C@H](C(C)C)NC1=O [Cp40, H-{d}YIC(1)V[1-Me-Trp]QDW[Sar]AHRC(1)[N-Me-Ile]-NH2, reference compound]",relatively short duration of action,> 7.00,–,–,–,–,–
